{"source": "paper PMC11148772", "about": "“Inhibition of protein translational machinery in triple-negative breast cancer as a promising therapeutic strategy” (Cell Reports Medicine, 2024)", "key": {"[1]": {"test": "Maximum tolerated dose / acute oral toxicity", "type": "in vivo", "parameters": "key to Behavioral, Neurologic and Autonomic signs, Response, all listed signs: 0; no adverse effect; ±1 mild adverse effect; ±2, moderate adverse effect; ±3 severe adverse effect", "conditions": "for Body Weight, Mean / Toxicity (death/test) / Behavioral, Neurologic and Autonomic signs, Response, all listed signs: Female SD rats; for Behavioral, Neurologic and Autonomic signs, Response, all listed signs: observation time 1 hr, 3 animals", "description": "Female Sprague-Dawley rats (Charles river laboratories, strain code: Crl:CD(SD) 001, 8–10 weeks old) were used by the eurofins lab services (Eurofins Discovery) to test the toxicity of SU056.\nThe acute oral toxicity of SU056 was evaluated by Eurofins lab services (Eurofins discovery). The oral toxicity study was performed in female rats and mice for multiple escalating doses (100 mg/kg, 200 mg/kg, 400 mg/kg). Rats and mice were monitored for their behavioral, neurological and autonomic signs after administration of SU056. The response was recorded as 0; no adverse effect, ±1 mild adverse effect, ±2, moderate adverse effect and ±3 severe adverse effect."}, "COX2": {"target": "T1, COX2 (Homo sapiens, UniProt P35354)", "T1 construct": "purchased Eurofins Discovery", "T1 sequence (P35354 18-604)": "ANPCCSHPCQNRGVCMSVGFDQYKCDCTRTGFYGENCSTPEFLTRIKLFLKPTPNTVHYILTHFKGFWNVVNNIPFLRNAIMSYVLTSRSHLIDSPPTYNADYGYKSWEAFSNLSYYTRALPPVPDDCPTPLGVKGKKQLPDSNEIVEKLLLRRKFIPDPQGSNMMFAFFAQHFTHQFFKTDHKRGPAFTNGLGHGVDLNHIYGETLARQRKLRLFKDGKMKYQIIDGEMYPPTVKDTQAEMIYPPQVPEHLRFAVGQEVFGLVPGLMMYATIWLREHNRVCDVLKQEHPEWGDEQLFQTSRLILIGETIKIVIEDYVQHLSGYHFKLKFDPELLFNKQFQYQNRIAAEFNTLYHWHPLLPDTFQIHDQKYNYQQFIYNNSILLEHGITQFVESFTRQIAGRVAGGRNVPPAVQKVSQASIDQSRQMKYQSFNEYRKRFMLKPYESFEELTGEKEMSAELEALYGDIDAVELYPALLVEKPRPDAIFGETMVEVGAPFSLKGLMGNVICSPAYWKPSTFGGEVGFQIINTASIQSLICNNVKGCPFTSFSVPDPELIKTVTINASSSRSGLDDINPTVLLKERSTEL", "test": "Enzyme assay (in vitro pharmacology)", "type": "biochemical", "conditions": "10 μM", "description": "(§1) The compound SU056 was tested for its radioligand binding and enzyme and uptake characteristics by Eurofins lab services (Eurofins discovery). The screening was performed at 10 μM of SU056. The binding was calculated as % inhibition of the binding of a radioactively labeled ligand specific to each target. The SU056 enzyme inhibition effect was determined as % inhibition of control enzyme activity."}, "PDE4D2": {"target": "T2, PDE4D2 (Homo sapiens, UniProt Q08499)", "T2 construct": "purchased Eurofins Discovery", "T2 sequence (Q08499 303-809 limits assumed)": "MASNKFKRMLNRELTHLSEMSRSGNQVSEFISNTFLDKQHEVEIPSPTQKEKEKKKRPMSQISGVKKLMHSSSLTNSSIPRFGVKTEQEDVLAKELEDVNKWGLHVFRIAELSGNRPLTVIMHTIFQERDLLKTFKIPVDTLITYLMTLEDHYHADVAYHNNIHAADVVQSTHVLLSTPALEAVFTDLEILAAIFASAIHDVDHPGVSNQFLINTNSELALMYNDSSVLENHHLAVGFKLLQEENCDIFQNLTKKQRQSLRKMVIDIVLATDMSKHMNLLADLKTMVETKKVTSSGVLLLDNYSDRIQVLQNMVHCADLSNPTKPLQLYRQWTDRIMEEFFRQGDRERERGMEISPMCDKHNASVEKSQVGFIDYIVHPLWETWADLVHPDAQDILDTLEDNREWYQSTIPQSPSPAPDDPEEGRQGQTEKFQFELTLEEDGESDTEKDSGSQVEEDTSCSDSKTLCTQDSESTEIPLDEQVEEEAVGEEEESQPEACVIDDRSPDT", "test": "Enzyme assay (in vitro pharmacology)", "type": "biochemical", "conditions": "10 μM", "description": "as §1"}, "[2]": {"test_system": "CA1262-PDX-TNBC and MA2821-PDX-TNBC tumors", "test": "Immunoblot of PDX tumor lysates", "type": "in vivo, mouse", "conditions": "daily oral 50 mg/kg for 3 weeks", "description": "MDA-MB-231, MDA-MB-468, and SUM159 cells were grown to 60–70% confluency and treated with DMSO and SU056 (1 μM) for 12 and 24 h. After the specific treatment time was over, total cell lysates were prepared in non-denaturing lysis buffer. For protein lysate from tumors: randomly selected frozen sample; three from vehicle and SU056 treated group were homogenized in non-denaturing lysis buffer at 4°C for 5 min. 10 μg of protein lysate per sample was resolved on 8–16% SDS-PAGE. Membranes were probed with specific primary antibodies followed by detection with HRP-conjugated appropriate secondary antibodies, visualized by enhanced chemiluminescence detection system, and imaged using an iBright imaging system (Thermo Fisher, USA)."}, "[3]": {"test": "Body weight during tumor xenograft treatment", "type": "in vivo, mouse", "conditions": "50 mg/kg", "description": "Female NOD-Scid gamma (NSG, Homozygous for Prkdc, Hemizygous for Il2rg<tm1Wjl>) (Strain #005557) and Balb/cJ (Strain#000651) (7–8 weeks old) mice were purchased from the Jackson Laboratory and housed under standard laboratory conditions. The Institutional Animal Care & Use Program of Oregon Health and Science University approved the protocol (#IP00003247). MDA-MB-231 (3 x 10^6), MDA-MB-468 (5 x 10^6), 4T1 (1 x 10^5) and EMT6 (1 x 10^5) cells were suspended in 100 μL of 1x PBS and injected subcutaneously in each mouse. Tumor growth was monitored regularly and once the tumors reached approximately around 50–100 mm^3, treatment with SU056 (50 mg/kg body weight given by oral gavage, 5 days per week) was started. Tumor size and body weight were measured once a week. At the end of treatment, mice were euthanized via deep anesthesia followed by cervical dislocation. Tumors were excised and weighed. Tumor samples were processed for immunoblotting for different markers.\nData S2. Effect of SU056 treatment on body weight, metastatic potential and pharmacokinetic profiling of SU056, related to Figure 2 and 3\nHuman, mouse and PDX models of TNBC were used for tumor xenograft studies. SU056 treatment was started when tumors reached around ~25-50 mm3 and continued until the experiment reached its 3-week endpoint. Body weight was monitored throughout the study to understand any change in dietary pattern. […]"}, "[4]": {"test_system": "TNBC cells (MDA-MB-231, MDA-MB-468, SUM159)", "test": "Immunoblot assay of cell lysates", "type": "cell-based, human", "conditions": "MDA-MB-231 and MDA-MB-468, 1 and 2 μM"}}, "note": "“Also recorded” adds a separate entry of the source."}
{"smiles": "O=C1OCC2=C1C(c1cccc(F)c1)c1cc3c(cc1N2CCO)OCO3", "note": "(centres unmarked) [SU056, 9-(3-fluorophenyl)-5-(2-hydroxyethyl)-6,9-dihydro-[1,3]dioxolo[4,5-g]furo[3,4-b]quinolin-8(5H)-one]", "values": [{"measurement": "Body Weight, Mean", "setting": "[1]; 100 mg/kg, 0 hr", "result": 212.7, "unit": "gm"}, {"measurement": "Toxicity (death/test)", "setting": "[1]; 100 mg/kg, 15 min", "result": "0/3"}, {"measurement": "Toxicity (death/test)", "setting": "[1]; 100 mg/kg, 1 hr", "result": "0/3"}, {"measurement": "Body Weight, Mean", "setting": "[1]; 100 mg/kg, 24 hr", "result": 216.7, "unit": "gm"}, {"measurement": "Toxicity (death/test)", "setting": "[1]; 100 mg/kg, 24 hrs", "result": "0/3"}, {"measurement": "Body Weight, Mean", "setting": "[1]; 100 mg/kg, 48 hr", "result": 219.0, "unit": "gm"}, {"measurement": "Toxicity (death/test)", "setting": "[1]; 100 mg/kg, 48 hrs", "result": "0/3"}, {"measurement": "Body Weight, Mean", "setting": "[1]; 100 mg/kg, 72 hr", "result": 229.7, "unit": "gm"}, {"measurement": "Toxicity (death/test)", "setting": "[1]; 100 mg/kg, 72 hrs", "result": "0/3"}, {"measurement": "Behavioral, Neurologic and Autonomic signs, Response, all listed signs", "setting": "[1]; 100 mg/kg", "result": 0}, {"measurement": "Body Weight, Mean", "setting": "[1]; 200 mg/kg, 0 hr", "result": 204.3, "unit": "gm"}, {"measurement": "Toxicity (death/test)", "setting": "[1]; 200 mg/kg, 15 min", "result": "0/3"}, {"measurement": "Toxicity (death/test)", "setting": "[1]; 200 mg/kg, 1 hr", "result": "0/3"}, {"measurement": "Body Weight, Mean", "setting": "[1]; 200 mg/kg, 24 hr", "result": 208.0, "unit": "gm"}, {"measurement": "Toxicity (death/test)", "setting": "[1]; 200 mg/kg, 24 hrs", "result": "0/3"}, {"measurement": "Body Weight, Mean", "setting": "[1]; 200 mg/kg, 48 hr", "result": 211.0, "unit": "gm"}, {"measurement": "Toxicity (death/test)", "setting": "[1]; 200 mg/kg, 48 hrs", "result": "0/3"}, {"measurement": "Body Weight, Mean", "setting": "[1]; 200 mg/kg, 72 hr", "result": 215.0, "unit": "gm"}, {"measurement": "Toxicity (death/test)", "setting": "[1]; 200 mg/kg, 72 hrs", "result": "0/3"}, {"measurement": "Behavioral, Neurologic and Autonomic signs, Response, all listed signs", "setting": "[1]; 200 mg/kg", "result": 0}, {"measurement": "Body Weight, Mean", "setting": "[1]; 400 mg/kg, 0 hr", "result": 204.0, "unit": "gm"}, {"measurement": "Toxicity (death/test)", "setting": "[1]; 400 mg/kg, 15 min", "result": "0/3"}, {"measurement": "Toxicity (death/test)", "setting": "[1]; 400 mg/kg, 1 hr", "result": "0/3"}, {"measurement": "Body Weight, Mean", "setting": "[1]; 400 mg/kg, 24 hr", "result": 200.0, "unit": "gm"}, {"measurement": "Toxicity (death/test)", "setting": "[1]; 400 mg/kg, 24 hrs", "result": "0/3"}, {"measurement": "Body Weight, Mean", "setting": "[1]; 400 mg/kg, 48 hr", "result": 209.7, "unit": "gm"}, {"measurement": "Toxicity (death/test)", "setting": "[1]; 400 mg/kg, 48 hrs", "result": "0/3"}, {"measurement": "Body Weight, Mean", "setting": "[1]; 400 mg/kg, 72 hr", "result": 216.7, "unit": "gm"}, {"measurement": "Toxicity (death/test)", "setting": "[1]; 400 mg/kg, 72 hrs", "result": "0/3"}, {"measurement": "Behavioral, Neurologic and Autonomic signs, Response, all listed signs", "setting": "[1]; 400 mg/kg", "result": 0}, {"measurement": "behavioral, neurological, and anatomical signs of toxicity and morbidity", "setting": "[1]; rats, 100, 200, and 400 mg/kg oral gavage, 72 h", "result": "not affected; also recorded: no observable changes"}, {"measurement": "enzyme activity", "setting": "COX2", "result": "inhibits"}, {"measurement": "enzyme activity", "setting": "PDE4D2", "result": "inhibits"}, {"measurement": "levels of YB-1 and RPL-11 in tumors", "setting": "[2]", "result": "decrease"}, {"measurement": "body weight of animals throughout treatment", "setting": "[3]; MDA-MB-231, MDA-MB-468, 4T1, EMT6 models", "result": "remained the same"}, {"measurement": "body weight of animals throughout treatment", "setting": "[3]; PDX models", "result": "remained the same"}, {"measurement": "BCL-2 expression", "setting": "[4]", "result": "inhibited"}, {"measurement": "Bax expression", "setting": "[4]", "result": "induced"}]}
